Values of other authors as cited in patent publication US20010031279A1, “Controlled delivery of antidepressants” (priority 1998, published 2001).
Where a name gives a salt, the structure may show the parent alone.

CCc1nn(CCCN2CCN(c3cccc(Cl)c3)CC2)c(=O)n1CCOc1ccccc1 [nefazodone hydrochloride, 2-[3-[4-(3-chlorophenyl)-piperazinyl]propyl]-5-ethyl-4-(2-phenoxyethyl)-2H-1,2,4-triazol-3(4H)-one hydrochloride]
time of peak plasma concentrations after dosing (conventional immediate release formulations): about one
half-life (in vivo): 2 to 4 h
